Measurements as given in paper PMC8565742 (PLoS Neglected Tropical Diseases, 2021).

Assays:
Sm.TRPMPZQ [1] = biological target: T1, Sm.TRPMPZQ (Schistosoma mansoni, UniProt A0A5K4F0X5); conditions: human TRPM8 agonists; cited from earlier work
Sm.TRPMPZQ [2] = biological target: T1, Sm.TRPMPZQ; test: cell-based; conditions: S3 Table, titration
Protocol: HEK cells were transfected with cDNA (400μg/ml DNA) encoding Sm.TRPMPZQ using a Maxcyte STX electroporation system and incubated overnight at 37°C. This system is uniquely capabable of large scale transfections providing one batch of cells ready for large scale HTS [30]. Briefly, the HEK cells were resuspended at 10^8/ml in Maxcyte electroporation buffer. Plasmid DNA was added to the cells in buffer to achieve a concentration of 400 μg/ml from a stock of 5mg/ml (in TE buffer). This mixture was loaded into the appropriate cassette, inserted into the machine, and cells electroporated. Cells were then frozen to provide a single supply of transfected cells for all subsequent assays. On the day of the assays, cells were thawed in a 37°C waterbath, and resuspended in DMEM + 10% FBS and counted. The cells were pelleted by centrifugation at 170xg for 5 minutes. The media was aspirated, and the remaining pellet was resuspended in 1x HBSS with 20 mM HEPES and 1% DMSO to achieve 1.33x10^6cells/ml. This cell suspension was then dispensed at 3 μl/well to the 1536 well plates (Greiner Bio One part 789072) at a density of 4,000 cells/well. Measurements of fluorescence intensity (λex = 470 nm, λem = 535 nm) were made using a FLIPR (Molecular Devices FLIPR Tetra). A read of basal fluorescence values was made (5s) prior to addition of compounds or controls (30 nl). In both ‘agonist’ and ‘antagonist mode’, the total assay volume was 6μl (1% DMSO). […] Ligand performance was categorized using an algorithm based on the activity of the entire dataset to define a ‘hit-cutoff’ parameter for both agonist-mode and antagonist-mode screening. […] Titration assays were executed using the same reagents, protocols and detection systems, done as 10-point concentration-response curves, performed in triplicate. Counter-screening was performed using untransfected HEK293 cells for comparison with results testing the same compounds effect on cells expressing Sm.TRPMPZQ, with ATP used as the positive control. For each compound, activity was plotted against compound concentration and data were fitted with a sigmoidal function. […] ChemAxon (https://www.chemaxon.com) academic licensing was provided for the use of Instant JChem (ver. 15.10.12.0) to perform compound mining of the libraries utilized in this effort.

Sm.TRPMPZQ [3] = biological target: T1, Sm.TRPMPZQ; test: cell-based; conditions: S3 Table, titration; remark: listed apart in the source
Protocol: HEK cells were transfected with cDNA (400μg/ml DNA) encoding Sm.TRPMPZQ using a Maxcyte STX electroporation system and incubated overnight at 37°C. This system is uniquely capabable of large scale transfections providing one batch of cells ready for large scale HTS [30]. Briefly, the HEK cells were resuspended at 10^8/ml in Maxcyte electroporation buffer. Plasmid DNA was added to the cells in buffer to achieve a concentration of 400 μg/ml from a stock of 5mg/ml (in TE buffer). This mixture was loaded into the appropriate cassette, inserted into the machine, and cells electroporated. Cells were then frozen to provide a single supply of transfected cells for all subsequent assays. On the day of the assays, cells were thawed in a 37°C waterbath, and resuspended in DMEM + 10% FBS and counted. The cells were pelleted by centrifugation at 170xg for 5 minutes. The media was aspirated, and the remaining pellet was resuspended in 1x HBSS with 20 mM HEPES and 1% DMSO to achieve 1.33x10^6cells/ml. […] A read of basal fluorescence values was made (5s) prior to addition of compounds or controls (30 nl). In both ‘agonist’ and ‘antagonist mode’, the total assay volume was 6μl (1% DMSO). […] Ligand performance was categorized using an algorithm based on the activity of the entire dataset to define a ‘hit-cutoff’ parameter for both agonist-mode and antagonist-mode screening. […] Titration assays were executed using the same reagents, protocols and detection systems, done as 10-point concentration-response curves, performed in triplicate. Counter-screening was performed using untransfected HEK293 cells for comparison with results testing the same compounds effect on cells expressing Sm.TRPMPZQ, with ATP used as the positive control. For each compound, activity was plotted against compound concentration and data were fitted with a sigmoidal function.

[4] = tested on: untransfected HEK293 cells; test: Counterscreen, antagonist mode, Ca2+ signal in untransfected HEK cells; assay type: cell-based; conditions: S3 Table, counterscreen titration
Protocol: (§1) HEK cells were transfected with cDNA (400μg/ml DNA) encoding Sm.TRPMPZQ using a Maxcyte STX electroporation system and incubated overnight at 37°C. This system is uniquely capabable of large scale transfections providing one batch of cells ready for large scale HTS [30]. Briefly, the HEK cells were resuspended at 10^8/ml in Maxcyte electroporation buffer. Plasmid DNA was added to the cells in buffer to achieve a concentration of 400 μg/ml from a stock of 5mg/ml (in TE buffer). This mixture was loaded into the appropriate cassette, inserted into the machine, and cells electroporated. Cells were then frozen to provide a single supply of transfected cells for all subsequent assays. On the day of the assays, cells were thawed in a 37°C waterbath, and resuspended in DMEM + 10% FBS and counted. The cells were pelleted by centrifugation at 170xg for 5 minutes. The media was aspirated, and the remaining pellet was resuspended in 1x HBSS with 20 mM HEPES and 1% DMSO to achieve 1.33x10^6cells/ml. This cell suspension was then dispensed at 3 μl/well to the 1536 well plates (Greiner Bio One part 789072) at a density of 4,000 cells/well. Measurements of fluorescence intensity (λex = 470 nm, λem = 535 nm) were made using a FLIPR (Molecular Devices FLIPR Tetra). A read of basal fluorescence values was made (5s) prior to addition of compounds or controls (30 nl). In both ‘agonist’ and ‘antagonist mode’, the total assay volume was 6μl (1% DMSO). […] Ligand performance was categorized using an algorithm based on the activity of the entire dataset to define a ‘hit-cutoff’ parameter for both agonist-mode and antagonist-mode screening. Any compound with greater percent activation than this cutoff was assigned as ‘active’ prior to titration and counter-screening. Titration assays were executed using the same reagents, protocols and detection systems, done as 10-point concentration-response curves, performed in triplicate. Counter-screening was performed using untransfected HEK293 cells for comparison with results testing the same compounds effect on cells expressing Sm.TRPMPZQ, with ATP used as the positive control. For each compound, activity was plotted against compound concentration and data were fitted with a sigmoidal function. In order to be considered a hit at this stage a compound must achieve a EC50<5 μM for agonists and IC50 <5 μM for antagonists. All compounds selected for titration were subjected to LC-MS analysis to confirm mass and sample purity. ChemAxon (https://www.chemaxon.com) academic licensing was provided for the use of Instant JChem (ver. 15.10.12.0) to perform compound mining of the libraries utilized in this effort.

[5] = tested on: untransfected HEK293 cells; test: Counterscreen, agonist mode, Ca2+ signal in untransfected HEK cells; assay type: cell-based; conditions: S3 Table, counterscreen titration; for EC50: unit inferred, read-out: HEK AG Final EC50
Protocol: as §1

endogenous receptors = conditions: confocal Ca2+ imaging; cited from earlier work

T1 sequence (A0A5K4F0X5 entry or part of it): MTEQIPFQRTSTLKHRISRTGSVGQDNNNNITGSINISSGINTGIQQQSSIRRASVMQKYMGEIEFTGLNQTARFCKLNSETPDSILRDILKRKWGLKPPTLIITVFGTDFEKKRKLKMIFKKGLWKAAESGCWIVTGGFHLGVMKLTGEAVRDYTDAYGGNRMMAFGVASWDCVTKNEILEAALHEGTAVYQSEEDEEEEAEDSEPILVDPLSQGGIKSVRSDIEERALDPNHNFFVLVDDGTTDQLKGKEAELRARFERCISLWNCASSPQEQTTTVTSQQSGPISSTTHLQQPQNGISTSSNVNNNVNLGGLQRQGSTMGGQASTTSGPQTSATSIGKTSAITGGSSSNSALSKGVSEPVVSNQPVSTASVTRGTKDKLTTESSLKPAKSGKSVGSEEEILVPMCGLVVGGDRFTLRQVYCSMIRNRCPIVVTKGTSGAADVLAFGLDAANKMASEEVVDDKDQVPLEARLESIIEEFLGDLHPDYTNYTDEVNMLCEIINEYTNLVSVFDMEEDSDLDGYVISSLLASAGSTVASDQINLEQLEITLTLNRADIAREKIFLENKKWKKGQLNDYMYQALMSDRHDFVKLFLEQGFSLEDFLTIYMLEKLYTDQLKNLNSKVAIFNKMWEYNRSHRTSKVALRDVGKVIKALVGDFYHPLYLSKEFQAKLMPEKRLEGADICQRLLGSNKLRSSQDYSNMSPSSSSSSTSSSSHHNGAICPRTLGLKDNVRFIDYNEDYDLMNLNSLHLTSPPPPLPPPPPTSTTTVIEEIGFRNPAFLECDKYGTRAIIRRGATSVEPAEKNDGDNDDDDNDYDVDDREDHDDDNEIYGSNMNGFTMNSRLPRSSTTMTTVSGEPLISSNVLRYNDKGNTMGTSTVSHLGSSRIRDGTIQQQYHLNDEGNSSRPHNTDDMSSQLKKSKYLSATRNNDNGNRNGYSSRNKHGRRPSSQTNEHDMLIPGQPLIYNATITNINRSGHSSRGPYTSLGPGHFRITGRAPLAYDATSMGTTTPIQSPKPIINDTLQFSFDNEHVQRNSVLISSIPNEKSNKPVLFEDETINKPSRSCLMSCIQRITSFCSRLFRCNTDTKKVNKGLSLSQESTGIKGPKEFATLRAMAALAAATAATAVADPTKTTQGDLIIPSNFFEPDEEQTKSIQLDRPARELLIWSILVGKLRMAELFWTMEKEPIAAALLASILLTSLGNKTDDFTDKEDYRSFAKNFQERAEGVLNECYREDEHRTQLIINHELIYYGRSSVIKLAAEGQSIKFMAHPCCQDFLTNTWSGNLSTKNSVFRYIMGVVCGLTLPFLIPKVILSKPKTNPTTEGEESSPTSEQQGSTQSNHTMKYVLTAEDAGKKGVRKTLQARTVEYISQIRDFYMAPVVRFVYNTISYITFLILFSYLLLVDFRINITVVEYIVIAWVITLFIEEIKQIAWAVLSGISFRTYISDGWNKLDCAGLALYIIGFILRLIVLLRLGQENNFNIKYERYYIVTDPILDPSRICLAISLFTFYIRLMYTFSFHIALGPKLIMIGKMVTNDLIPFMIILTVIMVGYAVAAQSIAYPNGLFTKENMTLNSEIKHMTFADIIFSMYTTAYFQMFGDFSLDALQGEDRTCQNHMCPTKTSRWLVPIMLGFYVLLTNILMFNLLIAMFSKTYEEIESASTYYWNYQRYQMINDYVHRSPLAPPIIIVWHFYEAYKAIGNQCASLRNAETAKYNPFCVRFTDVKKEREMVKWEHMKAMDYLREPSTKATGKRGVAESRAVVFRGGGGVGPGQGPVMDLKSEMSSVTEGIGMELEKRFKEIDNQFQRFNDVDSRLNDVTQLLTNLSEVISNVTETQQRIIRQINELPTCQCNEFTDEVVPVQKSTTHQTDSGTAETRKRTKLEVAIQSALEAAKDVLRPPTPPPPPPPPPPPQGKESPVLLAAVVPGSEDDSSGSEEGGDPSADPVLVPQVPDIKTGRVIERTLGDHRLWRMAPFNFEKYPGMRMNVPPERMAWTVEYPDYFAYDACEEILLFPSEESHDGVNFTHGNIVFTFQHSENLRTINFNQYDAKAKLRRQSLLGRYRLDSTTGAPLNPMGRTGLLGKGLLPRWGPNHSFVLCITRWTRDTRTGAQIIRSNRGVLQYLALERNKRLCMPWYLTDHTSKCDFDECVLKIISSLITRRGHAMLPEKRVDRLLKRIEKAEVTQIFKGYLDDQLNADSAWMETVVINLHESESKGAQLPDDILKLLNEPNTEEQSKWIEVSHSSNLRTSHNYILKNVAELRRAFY

SMILES	activation of Sm.TRPMPZQ (Sm.TRPMPZQ [1])	Sm.TRPMPZQ AG Averaged Max % Response (Sm.TRPMPZQ [2]) [%]	Sm.TRPMPZQ ANT Averaged Max % Response (Sm.TRPMPZQ [3]) [%]	HEK ANT Averaged Max % Response [4] [%]	HEK AG Averaged Max % Response [5] [%]	EC50 [5] [µM]	ΔF/F, amplitude of Ca2+ transient (endogenous receptors)
O=C1NC(c2cccc([N+](=O)[O-])c2)=CCN1c1ccccc1O [icilin]	not activated						
FC(F)(F)c1ccc2c(c1)nc(SCc1ccccc1)n2CCc1ccccc1 [SR-07000003001-2]		3.104	61.2456	21.2984	8.753	> 12.4	
Nc1ncnc2c1ncn2[C@@H]1O[C@H](COP(=O)(O)OP(=O)(O)OP(=O)(O)O)[C@@H](O)[C@H]1O [ATP]							4.5±1.5
CC1CCC(C(C)C)C(O)C1 (stereo not shown) [menthol]	not activated						
Cc1cc(C)n(-c2ccc(-n3cccc3/C=C(/C#N)S(=O)(=O)c3ccccc3)cc2)n1 [SR-02000000290-3]		6.499	71.9269	37.5091	13.2678	> 12.4	
